This note sets out measurements from patent US11130769B2 (Prelude Therapeutics Incorporated, priority 2018, dated 2021).

The target of assay [1] is MCL-1 (Homo sapiens (Human), UniProt Q07820). Description: Cell free Mcl-1:Bim affinity assay (fluorescence polarization competition). In kind it is binding. To be noted: 15 nM MCL-1, 5 nM FITC-Bim, 1 hour at room temperature, read-out: BIM_Ki. An outline of the steps:
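Compounds competed with FITC-labelled Bim peptide (5 nM) for MCL-1 (15 nM) in HEPES/NaCl buffer with 1% DMSO, 1 h at room temperature. Fluorescence polarization (535 nm emission) gave % inhibition versus DMSO and positive controls; IC50 from 10-point curves, converted to Ki by the Nikolovska-Coleska equation.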

Assay [2] has as its system H929 cells. Description: Cell viability assay (H929 10 FBS). The format is cell-based. To be noted: Homo sapiens, NCI-H929, 24 hours, read-out: H929_10FBS IC50. An outline of the steps:
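H929 cells, 4000/well, in RPMI 1640 with 10% FBS, sodium pyruvate, HEPES and glucose were exposed to compound 24 h at 37 °C. Viability read as luminescence after 30-60 min at RT with CellTiter-Glo or ATPlite 1 Step.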

Usually IC50 stands for the concentration at which inhibition is half-maximal.

Each structure is given as a SMILES string. Where two headings read alike, the source gives them in different places.

MCL-1, sequence (Q07820 whole entry): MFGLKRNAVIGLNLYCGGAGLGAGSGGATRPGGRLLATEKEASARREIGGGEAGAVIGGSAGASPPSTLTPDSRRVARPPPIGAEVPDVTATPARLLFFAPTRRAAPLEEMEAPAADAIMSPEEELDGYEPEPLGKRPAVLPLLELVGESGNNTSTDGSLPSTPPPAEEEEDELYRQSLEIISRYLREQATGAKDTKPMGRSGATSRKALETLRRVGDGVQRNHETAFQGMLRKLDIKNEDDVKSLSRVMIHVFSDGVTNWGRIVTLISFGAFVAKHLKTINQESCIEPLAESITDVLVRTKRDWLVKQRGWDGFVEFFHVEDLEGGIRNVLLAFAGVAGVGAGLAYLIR

In the case of `CC1(C)OC/C=C/[C@H](OCC(=O)N[C@H]2CCOC2)[C@@H]2CC[C@H]2CN2C[C@@]3(CCCc4cc(Cl)ccc43)COc3ccc(cc32)S(=O)(=O)NC1=O` [Example 285, 2-[(3R,6R,7S,8E,22S)-6′-Chloro-12,12-dimethyl-13,15,15-trioxo-spiro[11,20-dioxa-15λ6-thia-1,14-diazatetracyclo[14.7.2.03,6.019,24]pentacosa-8,16,18,24-tetraene-22,1′-tetralin]-7-yl]oxy-N-[(3S)-tetrahydrofuran-3-yl]acetamide], the Ki in assay [1] (class symbols) was below 0.001 µM. The IC50 in assay [2] is below 0.5 µM.

`CO[C@@H]1/C=C/CN[C@@H](C(C)C)C(=O)NS(=O)(=O)c2ccc3c(c2)N(C[C@@H]2CC[C@H]21)C[C@@]1(CCCc2cc(Cl)ccc21)CO3` [Example 128, (3R,6R,7R,8E,12S,22S)-6′-Chloro-7-methoxy-12-isopropyl-15,15-dioxo-spiro[20-oxa-15-thia-1,11,14-triazatetracyclo[14.7.2.03,6.019,24]pentacosa-8,16,18,24-tetraene-22,1′-tetralin]-13-one]: the Ki in assay [1] (class symbols) fell in the range of 0.001 to 0.1 µM. For the same compound, in assay [2], the IC50 was above 1 µM.

Regarding `CN(C(=O)O[C@H]1/C=C/COC(C)(C)C(=O)NS(=O)(=O)c2ccc3c(c2)N(C[C@@H]2CC[C@H]21)C[C@]1(CO3)OCCc2cc(Cl)ccc21)C1COC1` [Example 298, [(3R,6R,7S,8E,22R)-6′-Chloro-12,12-dimethyl-13,15,15-trioxo-spiro[11,20-dioxa-15-thia-1,14-diazatetracyclo[14.7.2.03,6.019,24]pentacosa-8,16,18,24-tetraene-22,1′-isochromane]-7-yl] N-methyl-N-(oxetan-3-yl)carbamate], in assay [1] (class symbols), the Ki was below 0.001 µM. The IC50 in assay [2] was below 1 µM.

For `CO[C@@H]1/C=C/CN(C)C2(CCC2)C(=O)NS(=O)(=O)c2ccc3c(c2)N(C[C@@H]2CC[C@H]21)C[C@@]1(CCCc2cc(Cl)ccc21)CO3` [Example 120, (3R,6R,7R,8E,22S)-6′-Chloro-7-methoxy-11-methyl-12,12-(1,3-propylene)-15,15-dioxo-spiro[20-oxa-15-thia-1,11,14-triazatetracyclo[14.7.2.03,6.019,24]pentacosa[8,16(25),17,19(24)]tetraene-22,1′-tetralin]-13-one], the Ki in assay [1] (class symbols) lay in the range of 0.001 to 0.1 µM. In assay [2], the IC50 is below 1 µM.

With `CN(C(=O)O[C@H]1/C=C/COC(C)(C)C(=O)NS(=O)(=O)c2ccc3c(c2)N(C[C@@H]2CC[C@H]21)C[C@@]1(CCOc2cc(Cl)ccc21)CO3)C1CCOCC1` [Example 304, [(3R,6R,7S,8E,22S)-7′-Chloro-12,12-dimethyl-13,15,15-trioxo-spiro[11,20-dioxa-15-thia-1,14-diazatetracyclo[14.7.2.03,6.019,24]pentacosa-8,16,18,24-tetraene-22,4′-chromane]-7-yl] N-methyl-N-tetrahydropyran-4-yl-carbamate], the Ki in assay [1] (class symbols) was below 0.001 µM. For the same compound, in assay [2], the 50% inhibitory concentration (IC50) is below 0.5 µM.

As for `CN1C/C=C/[C@H](OCCN2CCC(F)(F)C2)[C@@H]2CC[C@H]2CN2C[C@@]3(CCCc4cc(Cl)ccc43)COc3ccc(cc32)S(=O)(=O)NC(=O)C1(C)C` [Example 288, (3R,6R,7S,8E,22S)-6′-Chloro-7-[2-(3,3-difluoropyrrolidin-1-yl)ethoxy]-11,12,12-trimethyl-15,15-dioxo-spiro[20-oxa-15-thia-1,11,14-triazatetracyclo[14.7.2.03,6.019,24]pentacosa-8,16,18,24-tetraene-22,1′-tetralin]-13-one], the Ki in assay [1] (class symbols) fell in the range of 0.001 to 0.1 µM. Moreover, in assay [2], the concentration for half-maximal inhibition (IC50) is above 1 µM.

For `CC1(C)OC/C=C/[C@H](OC(=O)N2CC(O)C2)[C@@H]2CC[C@H]2CN2C[C@@]3(CCCc4cc(Cl)ccc43)COc3ccc(cc32)S(=O)(=O)NC1=O` [Example 153], in assay [1] (class symbols), the Ki was below 0.001 µM. Further, the half-maximal inhibitory concentration (IC50) in assay [2] was below 0.5 µM.

Take `O=C(NS(=O)(=O)c1ccc2c(c1)N(CC1CCC1)CC1(CCCc3cc(Cl)ccc31)CO2)N1CCCC1` (stereo not shown) [Example 24, N-[6′-Chloro-5-(cyclobutylmethyl)spiro[2,4-dihydro-1,5-benzoxazepine-3,1′-tetralin]-7-yl]sulfonylpyrrolidine-1-carboxamide]: the Ki in assay [1] (numeric values) worked out at 0.006 µM. The IC50 in assay [2] is above 1 µM.

Take `CC1(C)OC/C=C/[C@H](O)[C@@H]2CC[C@H]2CN2C[C@]3(COc4ccc(cc42)S(=O)(=O)NC1=O)OCCc1cc(Cl)ccc13` [Example 249, (3R,6R,7S,8E,22R)-6′-Chloro-7-hydroxy-12,12-dimethyl-15,15-dioxo-spiro[11,20-dioxa-15-thia-1,14-diazatetracyclo[14.7.2.03,6.019,24]pentacosa-8,16,18,24-tetraene-22,1′-isochromane]-13-one]: the Ki in assay [1] (class symbols) was 0.001 to 0.1 µM. Moreover, the IC50 in assay [2] is above 1 µM.

In the case of `CO[C@H]1/C=C/COCC(=O)NS(=O)(=O)c2ccc3c(c2)N(C[C@@H]2CC[C@H]21)C[C@@]1(CCCc2cc(Cl)ccc21)CO3` [Example 111, (3R,6R,7S,8E,22S)-6′-Chloro-7-methoxy-15,15-dioxo-spiro[[11,20]dioxa[15]thia-1,14-diazatetracyclo[14.7.2.03,6.019,24]pentacosa[8,16(25),17,19(24)]tetraene-22,1′-tetralin]-13-one], the Ki in assay [1] (class symbols) fell in the range of 0.001 to 0.1 µM. Further, in assay [2], the IC50 is above 1 µM.

In the case of `CO[C@@H]1/C=C/C[C@H](C)[C@@H](C)C(=O)NS(=O)(=O)c2ccc3c(c2)N(C[C@@H]2CC[C@H]21)C[C@@]1(CCCc2cc(Cl)ccc21)CO3` [Example 78, (3R,6R,7R,8E,1S,12R,22S)-6′-Chloro-7-methoxy-11,12-dimethyl-15,15-dioxo-spiro[20-oxa-15-thia-1,14-diazatetracyclo[14.7.2.03,6.019,24]pentacosa-8,16,18,24-tetraene-22,1′-tetralin]-13-one], in assay [1] (class symbols), the Ki was 0.001 to 0.1 µM. Moreover, the 50% inhibitory concentration (IC50) in assay [2] is above 1 µM.

Take `C[C@@H]1NC(=O)COC[C@@H]2CC[C@H]2CN2C[C@@]3(CCCc4cc(Cl)ccc43)COc3ccc(cc32)S(=O)(=O)NC1=O` [Example 197, (3R,6R,12S,22S)-6′-Chloro-12-methyl-15,15-dioxo-spiro[8,20-dioxa-15-thia-1,11,14-triazatetracyclo[14.7.2.0˜3,6.0˜19,24]pentacosa-16,18,24-triene-22,1′-tetralin]-10,13-dione]: the Ki in assay [1] (class symbols) lay in the range of 0.001 to 0.1 µM. In addition, the IC50 in assay [2] was above 1 µM.

For `CC(C)N1CCN(C(=O)O[C@H]2/C=C/COC(C)(C)C(=O)NS(=O)(=O)c3ccc4c(c3)N(C[C@@H]3CC[C@H]32)C[C@@]2(CCCc3cc(Cl)ccc32)CO4)CC1` [Example 186, [(3R,6R,7S,8E,22S)-6′-Chloro-12,12-dimethyl-13,15,15-trioxo-spiro[11,20-dioxa-15-thia-1,14-diazatetracyclo[14.7.2.03,6.019,24]pentacosa-8,16,18,24-tetraene-22,1′-tetralin]-7-yl] 4-isopropylpiperazine-1-carboxylate], in assay [1] (class symbols), the Ki is below 0.001 µM. The IC50 in assay [2] is below 0.5 µM.

Regarding `CC1(C)OC/C=C/[C@H](OC(=O)N2CCCC2)[C@@H]2CC[C@H]2CN2C[C@@]3(CCCc4cc(Cl)ccc43)COc3ccc(cc32)S(=O)(=O)NC1=O` [Example 173, [(3R,6R,7S,8E,22S)-6′-Chloro-12,12-dimethyl-13,15,15-trioxo-spiro[11,20-dioxa-15-thia-1,14-diazatetracyclo[14.7.2.03,6.019,24]pentacosa-8,16,18,24-tetraene-22,1′-tetralin]-7-yl]pyrrolidine-1-carboxylate], the Ki in assay [1] (class symbols) is below 0.001 µM. Also, the IC50 in assay [2] was below 0.5 µM.
